Data taken from ChEMBL document CHEMBL1144848, “Interaction of a cyclostreptin analogue with the microtubule taxoid site: the covalent reaction rapidly follows binding” (J Nat Prod, 2008).
Activity calls are given as the source filed them. The calls are words filed in the database; no cut-off is given here.

Tests used:
[1] = species: Bos taurus; test: Enhancement of bovine tubulin stability at <=0 degC
[2] = species: Bos taurus; test: Binding affinity to bovine tubulin assessed as drug level in bound to per mole of colchicine site at <=0 degC after 60 mins by total binding assay
[3] = species: Bos taurus; test: Binding affinity to bovine tubulin assessed as drug level in bound to per mole of colchicine site at <=20 degC after 1 min by total binding assay
[4] = species: Bos taurus; test: Binding affinity to bovine tubulin assessed as drug level in bound to per mole of colchicine site at <=20 degC after 1 min by covalent binding assay
[5] = species: Bos taurus; test: Binding affinity to bovine tubulin assessed as drug level in bound to per mole of colchicine site at <=20 degC after 60 mins by total binding assay
[6] = species: Bos taurus; test: Binding affinity to bovine tubulin assessed as drug level in bound to per mole of colchicine site at <=20 degC after 60 mins by covalent binding assay
[7] = species: Bos taurus; test: Binding affinity to bovine tubulin at 5 uM in <=0 degC after 60 mins; settings: tested as the 14C-labelled form
[8] = species: Bos taurus; test: Binding affinity to bovine tubulin at 5 uM in <=20 degC after 60 mins; settings: tested as the 14C-labelled form
[9] = species: Bos taurus; test: Binding affinity to bovine microtubules assessed as drug level in bound to per mole taxoid site at <=0 degC after 1 min by total binding assay
[10] = species: Bos taurus; test: Binding affinity to bovine microtubules assessed as drug level in bound to per mole taxoid site at <=0 degC after 1 min by covalent binding assay
[11] = species: Bos taurus; test: Binding affinity to bovine microtubules assessed as drug level in bound to per mole taxoid site at <=0 degC after 60 mins by total binding assay
[12] = species: Bos taurus; test: Binding affinity to bovine microtubules assessed as drug level in bound to per mole taxoid site at <=0 degC after 60 mins by covalent binding assay
[13] = species: Bos taurus; test: Binding affinity to bovine microtubules assessed as drug level in bound to taxoid site at <=20 degC after 1 min by total binding assay
[14] = species: Bos taurus; test: Binding affinity to bovine microtubules assessed as drug level in bound to taxoid site at <=0 degC after 1 min by covalent binding assay
[15] = species: Bos taurus; test: Binding affinity to bovine microtubules assessed as drug level in bound to taxoid site at <=20 degC after 60 mins by total binding assay
[16] = species: Bos taurus; test: Binding affinity to bovine microtubules assessed as drug level in bound to taxoid site at <=0 degC after 60 mins by covalent binding assay
[17] = species: Bos taurus; test: Binding affinity to bovine tubulin assessed as drug level in bound to per mole of colchicine site at <=0 degC after 1 min by total binding assay

## CC(=O)O[C@H]1C(=O)[C@@]2(C)[C@H]([C@H](OC(=O)c3ccccc3)[C@]3(O)C[C@H](OC(=O)[C@H](O)[C@@H](NC(=O)c4ccccc4)c4ccccc4)C(C)=C1C3(C)C)[C@]1(OC(C)=O)CO[C@@H]1C[C@@H]2O
[1]
  Activity: Active

## CC(=O)O[C@H]1[C@H](C)[C@@H](O)[C@H]2[C@H]1C=C(C)[C@@H]1C[C@@H]3[C@@H](C4=C5O[C@]3(C)CC[C@H](OC4=O)[C@H]5C)[C@H]21
[2]
  stoichiometry: 0.06 mol/mol
[3]
  Activity: 0.6 mol/mol
[4]
  stoichiometry: 0.7 mol/mol
[5]
  stoichiometry: 0.81 mol/mol
[6]
  Activity: 0.88 mol/mol
[7]
  Activity: inactive
[8]
  Activity: inactive
[9]
  stoichiometry: 0.14 mol/mol
[10]
  Activity: 0.13 mol/mol
[11]
  Activity: 0.38 mol/mol
[12]
  Activity: 0.35 mol/mol
[13]
  Activity: 0.53 mol/mol
[14]
  Activity: 0.46 mol/mol
[15]
  Activity: 0.93 mol/mol
[16]
  Activity: 0.81 mol/mol
[17]
  Activity: 0.01 mol/mol
